The source of these data is PMC10653080, “Intermolecular Interactions, Solute Descriptors, and Partition Properties of Neutral Per- and Polyfluoroalkyl Substances (PFAS)” (Environmental Science & Technology, 2023).

Series [1] in a line: PP-LFER solute descriptor determination from GC retention and partition coefficient data. It is filed as physicochemical. Particulars: for Solute descriptor S (dipolarity/polarizability parameter): final adjusted value, shared within a PFAS group. From the text: The GC columns used were, from low to high polarity, HP-5ms Ultra Inert (poly[5% phenyl/95% methyl]siloxane equivalent; Agilent Technologies, Santa Clara, CA), DB-200 (poly[35% trifluoropropyl/65% methyl]siloxane; Agilent Technologies), DB-225ms (poly[50% cyanopropylphenyl/50% methyl]siloxane equivalent; Agilent Technologies), and SolGel-WAX (polyethylene glycol; Trajan, Ringwood, Australia). Column dimensions were all 30 m × 0.25 mm i.d. with a coating thickness of 0.25 μm.
The method for GC retention time measurements follows that of a previous study.[18] Briefly, a 7890A/5975C GC/MS instrument (Agilent Technologies) equipped with an MPS2 autosampler and CIS4 injector (Gerstel, Mülheim an der Ruhr, Germany) was used for all measurements. For each column, isothermal retention times were measured at four temperatures in the range of 30–120 °C to cover all target compounds. The temperature at the injector and transfer line was fixed at 120 °C. The carrier gas was He at a flow rate of 1.2 mL/min. Compounds were introduced into the GC by injecting either headspace (100–250 μL) above the pure compound or solution in acetone (1 μL). Split injections were performed with a split ratio of 20–250. Column dead time (t0) was determined by injecting air and measuring Ar (m/z 40). From the measured retention time (t), the retention factor (k) was calculated as k = (t–t0)/t0. Measurements with t < t0 + 0.1 min were considered too short and discarded. For each column and temperature, k values were obtained for 29–52 PFAS and 29–48 reference compounds.
The standard procedure for solute descriptor determination was as follows. First, the system parameters in eq 1 were calibrated for each column (or partition system) and temperature by MLR using log k (or log K) data and solute descriptors for reference compounds. Dimethylformamide, 1-pentylamine, dimethylsulfoxide, and dodecamethylcyclohexasiloxane (D6) were removed from the log k data sets, because they frequently appeared as outliers (>3 SD) of the PP-LFER model fit. Reference data sets for hexadecane/water partition coefficients (KHxd/w),[21]Kow,[22] and octanol/air partition coefficients (Koa)[23] were taken from the cited references and amended with data for organosilicon compounds.[24],[25] Similar to PFAS, organosilicon compounds have weak van der Waals interaction properties[9] and it may be beneficial to include them in reference data sets. The solute descriptors for PFAS were then back-calculated by using the calibrated PP-LFER equations. Of the five descriptors, V can be calculated from the molecular structure[26] (note: the fragment value for F from Goss et al.[11] was used), and L was available for the PFAS studied.[18] Thus, the left side of eq 2 was known, and MLR was performed to obtain S, A, and B on the right side. [drawing 2] 2 To determine the three descriptors, a minimum of three k and K data are required for a given PFAS compound. The data used here were: k measured for 60 PFAS in this study, KHxd/w for 21 PFAS,[5]Kow for 12 PFAS (see the Results and Discussion section), and Koa for 3 PFAS.[11]
Key to the accurate determination of the polar interaction descriptors is the availability of K data for partition systems with water as a partition phase because water is a strong H-bond donor and acceptor phase and thus the corresponding K values are sensitive to the H-bonding properties of the solute.[27] In particular, at least one solvent/water or air/water partition coefficient is required to determine B because there is no commonly used GC phase that is a significant H-bond donor. In the data set, KHxd/w is sensitive to both A and B and Kow is sensitive to B. However, KHxd/w and Kow data are not available for all PFAS. To increase the number of PFAS for which descriptors can be determined, the following assumptions were made. […]

Series [2] in a line: Octanol/water partition coefficient (Kow), shared-headspace method. The settings on record: 25 °C; shared-headspace method (SH). The series is classed as physicochemical. The procedure: (§1) Kow was measured for nine PFAS (Table 2) to supplement the data set for descriptor determination. The nine PFAS were selected based on measurement feasibility and structural diversity. The shared-headspace or batch partition method was used as described previously.[5] Details of the methods are given in SI-1.

A short description of series [3]: Octanol/water partition coefficient (Kow), batch partition method. The series is classed as physicochemical. The settings on record: 25 °C; batch partition method (BP). The procedure:
as §1

Details of series [4]: method as in PMID 18800530. Particulars: 25 °C; batch partition method (BP); ref [4]; cited from earlier work.
Setting [5] is: 25 °C, updated in the iterative calculation.

Several values for one entry are separate records, joined by “and”; a condition that tells them apart may be missing. Identical values can stand only once. Like-named read-outs stand apart in the source and are kept apart here.

`OCC(F)(F)C(F)(F)C(F)(F)C(F)(F)C(F)(F)C(F)(F)C(F)(F)F` [7:1 FTOH, 1H,1H-Perfluorooctan-1-ol]: the “Solute descriptor L (logarithmic hexadecane/air partition coefficient, KHxd/air)” value in series [1] (setting [5]) is given as 2.715. Besides, the “Solute descriptor S (dipolarity/polarizability parameter)” value in series [1] was determined as 0.30. The “Measured Log Kow, Mean ± SD” value in series [2] was 5.01 ± 0.02.
As for `FC(F)(F)C(F)(F)C(F)(F)C(F)(F)C(F)(F)C(F)(F)CI` [6:1 FTI, 1H,1H-Perfluoroheptyl iodide], in series [1] (setting [5]), the “Solute descriptor L (logarithmic hexadecane/air partition coefficient, KHxd/air)” value was 3.382 and 3.38. Further, the “Solute descriptor S (dipolarity/polarizability parameter)” value in series [1] was 0.27 and 0.27 ± 0.02. The “Measured Log Kow, Mean ± SD” value in series [2] amounted to 5.57 ± 0.01.
Take `CN(CCO)S(=O)(=O)C(F)(F)C(F)(F)C(F)(F)C(F)(F)F` [MeFBSE, N-Methylperfluorobutanesulfonamidoethanol]: the “Measured Log Kow, Mean ± SD” value in series [3] was 3.11 ± 0.04. Moreover, in series [1] (setting [5]), the “Solute descriptor L (logarithmic hexadecane/air partition coefficient, KHxd/air)” value is given as 4.769. Further, the “Solute descriptor S (dipolarity/polarizability parameter)” value in series [1] was 1.00.
Turning to `CC(O)C(F)(F)C(F)(F)C(F)(F)C(F)(F)C(F)(F)F` (centres unmarked) [5:2s FTOH, 1H,1H,1H,2H-Perfluoroheptan-2-ol], the “Solute descriptor L (logarithmic hexadecane/air partition coefficient, KHxd/air)” value in series [1] (setting [5]) was 2.296. Moreover, the “Solute descriptor S (dipolarity/polarizability parameter)” value in series [1] is 0.39 and 0.39 ± 0.02. Besides, the “Measured Log Kow, Mean ± SD” value in series [2] stood at 3.80 ± 0.03.
Regarding `OCCCC(F)(F)C(F)(F)C(F)(F)F` [3:3 FTOH, 4,4,5,5,6,6,6-Heptafluorohexan-1-ol], the “Solute descriptor L (logarithmic hexadecane/air partition coefficient, KHxd/air)” value in series [1] (setting [5]) is reported as 2.710. Moreover, the “Solute descriptor S (dipolarity/polarizability parameter)” value in series [1] was 0.53. Further, in series [2], the “Measured Log Kow, Mean ± SD” value came to 2.46 ± 0.00.
Consider `OCCC(F)(F)C(F)(F)C(F)(F)C(F)(F)C(F)(F)C(F)(F)C(F)(F)C(F)(F)F` [8:2 FTOH, 1H,1H,2H,2H-Perfluorodecan-1-ol], for which, in series [1] (setting [5]), the “Solute descriptor L (logarithmic hexadecane/air partition coefficient, KHxd/air)” value was 3.554. Further, the “Solute descriptor S (dipolarity/polarizability parameter)” value in series [1] was 0.35. The “Log Kow, Mean ± SD” value in series [4] is listed as 5.58 ± 0.06.
As for `OCCC(F)(F)C(F)(F)C(F)(F)C(F)(F)C(F)(F)C(F)(F)F` [6:2 FTOH, 1H,1H,2H,2H-Perfluorooctan-1-ol], the “Solute descriptor L (logarithmic hexadecane/air partition coefficient, KHxd/air)” value in series [1] (setting [5]) is reported as 2.997. The “Solute descriptor S (dipolarity/polarizability parameter)” value in series [1] was 0.35. Further, the “Log Kow, Mean ± SD” value in series [4] was 4.54 ± 0.01.
Regarding `FC(F)C(F)(F)C(F)(F)C(F)(F)C(F)(F)C(F)(F)CI` [6:1 FTI-7H, 1H,1H,7H-Perfluoroheptyl iodide], the “Solute descriptor L (logarithmic hexadecane/air partition coefficient, KHxd/air)” value in series [1] (setting [5]) is 3.887 and 3.89. Moreover, the “Solute descriptor S (dipolarity/polarizability parameter)” value in series [1] is 0.63 and 0.63 ± 0.04. The “Measured Log Kow, Mean ± SD” value in series [2] was 4.90 ± 0.01.
With `CNS(=O)(=O)C(F)(F)C(F)(F)C(F)(F)C(F)(F)F` [MeFBSA, N-Methylperfluorobutanesulfonamide], the “Measured Log Kow, Mean ± SD” value in series [3] is listed as 3.51 ± 0.00. In addition, the “Solute descriptor L (logarithmic hexadecane/air partition coefficient, KHxd/air)” value in series [1] (setting [5]) was 3.566. Further, the “Solute descriptor S (dipolarity/polarizability parameter)” value in series [1] is reported as 0.88.
`CC(=O)OCCC(F)(F)C(F)(F)C(F)(F)C(F)(F)C(F)(F)C(F)(F)C(F)(F)C(F)(F)F` [8:2 FTAce, 1H,1H,2H,2H-Perfluorodecyl acetate]: in series [1], the “Solute descriptor L (logarithmic hexadecane/air partition coefficient, KHxd/air)” value is listed as 4.234 and the “Solute descriptor S (dipolarity/polarizability parameter)” value was 0.54.
As for `FC(F)(F)C(F)(F)C(F)(F)C(F)(F)C(F)(F)C(F)(F)C(F)(F)C(F)(F)I` [PFOI, Perfluorooctyl iodide], in series [1] (setting [5]), the “Solute descriptor L (logarithmic hexadecane/air partition coefficient, KHxd/air)” value is 3.068. Moreover, the “Solute descriptor S (dipolarity/polarizability parameter)” value in series [1] was found to be 0.07.
In the case of `FC(F)(F)C(F)(F)C(F)(F)C(F)(F)C(F)(F)C(F)(F)C(F)(F)C(F)(F)C(F)(F)C(F)(F)I` [PFDI, Perfluorodecyl iodide], in series [1], the “Solute descriptor L (logarithmic hexadecane/air partition coefficient, KHxd/air)” value was found to be 3.623 and the “Solute descriptor S (dipolarity/polarizability parameter)” value was 0.07.
For the molecule `C=C(C)C(=O)OCCC(F)(F)C(F)(F)C(F)(F)C(F)(F)C(F)(F)C(F)(F)F` [6:2 FTMAC, 1H,1H,2H,2H-Perfluorooctyl methacrylate], in series [1] (setting [5]), the “Solute descriptor L (logarithmic hexadecane/air partition coefficient, KHxd/air)” value was 4.553. Besides, the “Solute descriptor S (dipolarity/polarizability parameter)” value in series [1] was found to be 0.53.
As to `OCCC(F)(F)C(F)(F)C(F)(F)C(F)(F)F` [4:2 FTOH, 1H,1H,2H,2H-Perfluorohexan-1-ol], the “Solute descriptor L (logarithmic hexadecane/air partition coefficient, KHxd/air)” value in series [1] (setting [5]) was 2.421. The “Solute descriptor S (dipolarity/polarizability parameter)” value in series [1] stood at 0.35. In series [4], the “Log Kow, Mean ± SD” value is reported as 3.30 ± 0.04.
Consider `FC(F)(F)C(F)(I)OC(F)(F)C(F)(F)C(F)(F)F` (centres unmarked) [FE-E1-I, 1-(Heptafluoropropoxy)-1,2,2,2-tetrafluoro-1-iodoethane], for which the “Solute descriptor L (logarithmic hexadecane/air partition coefficient, KHxd/air)” value in series [1] (setting [5]) is 1.937. In series [1], the “Solute descriptor S (dipolarity/polarizability parameter)” value is reported as 0.06.
As to `C=Cc1ccc(C(F)(F)C(F)(F)C(F)(F)C(F)(F)C(F)(F)C(F)(F)C(F)(F)C(F)(F)F)cc1` [PFOSt, 4-(Perfluorooct-1-yl)styrene], in series [1], the “Solute descriptor L (logarithmic hexadecane/air partition coefficient, KHxd/air)” value is given as 5.645 and the “Solute descriptor S (dipolarity/polarizability parameter)” value came out at 0.32.
With `OCCCCC(F)(F)C(F)(F)C(F)(F)C(F)(F)F` [4:4 FTOH, 5,5,6,6,7,7,8,8,8-Nonafluorooctan-1-ol], the “Solute descriptor L (logarithmic hexadecane/air partition coefficient, KHxd/air)” value in series [1] (setting [5]) was 3.499. In addition, in series [1], the “Solute descriptor S (dipolarity/polarizability parameter)” value is recorded as 0.52. Besides, in series [2], the “Measured Log Kow, Mean ± SD” value is on record as 3.54 ± 0.00.
In the case of `C=CC(=O)OCCC(F)(F)C(F)(F)C(F)(F)C(F)(F)C(F)(F)C(F)(F)F` [6:2 FTAC, 1H,1H,2H,2H-Perfluorooctyl acrylate], in series [1] (setting [5]), the “Solute descriptor L (logarithmic hexadecane/air partition coefficient, KHxd/air)” value is 4.098. Moreover, the “Solute descriptor S (dipolarity/polarizability parameter)” value in series [1] was found to be 0.54.
On the same counts, the results for `FC(F)(F)C(F)(F)C(F)(F)C(F)(F)C(F)(F)C(F)(F)CCI` [6:2 FTI, 1H,1H,2H,2H-Perfluorooctyl iodide] are 3.892 and 0.32.
For `FC(OC(F)(F)C(F)(OC(F)(F)C(F)(OC(F)(F)C(F)(OC(F)(F)C(F)(OC(F)(F)C(F)(F)C(F)(F)F)C(F)(F)F)C(F)(F)F)C(F)(F)F)C(F)(F)F)C(F)(F)F` (centres unmarked) [FE-E5, 1,1,1,2,4,4,5,7,7,8,10,10,11,13,13,14,16,16,17 ,17,18,18,18-Tricosafluoro-5,8,11,14-tetrakis(trifluoromethyl)-3,6,9,12,15-pentaoxaoctadecane], in series [1], the “Solute descriptor L (logarithmic hexadecane/air partition coefficient, KHxd/air)” value was 3.128 and the “Solute descriptor S (dipolarity/polarizability parameter)” value was -0.81.
Regarding `NS(=O)(=O)C(F)(F)C(F)(F)C(F)(F)C(F)(F)F` [PFBSA, Perfluorobutanesulfonamide], in series [3], the “Measured Log Kow, Mean ± SD” value is reported as 2.85 ± 0.02. In addition, in series [1] (setting [5]), the “Solute descriptor L (logarithmic hexadecane/air partition coefficient, KHxd/air)” value is reported as 3.607. The “Solute descriptor S (dipolarity/polarizability parameter)” value in series [1] was determined as 0.96.
In the case of `C=CCOC(F)(C(F)(F)F)C(F)(F)F` [APFIPE, Allyl perfluoroisopropyl ether], the “Solute descriptor L (logarithmic hexadecane/air partition coefficient, KHxd/air)” value in series [1] (setting [5]) is listed as 1.717. Besides, the “Solute descriptor S (dipolarity/polarizability parameter)” value in series [1] came out at 0.15.
